Data on 16 molecules can be found in patent publication US11306079B2, “3-(5-amino-pyrazin-2-yl)-benzenesulfonamide derivatives and related compounds as PI3K-gamma kinase inhibitors” (Incyte Corporation, priority 2017, dated 2022).

Molecules are shown by their SMILES. pIC50: −log10 of the molar value. Where a name gives a salt, the structure may show the parent alone. Bounds are passed on as bounds.

Assay [1] addresses PI3Kγ (p110γ) Recombinant Human Protein (Homo sapiens (Human), UniProt P48736). Description: PI3K-γ Scintillation Proximity Assay. The note with it: 20 μM PIP2, 2 μM ATP, 13 nM PI3Kγ, 120 min, room temperature. In kind it is biochemical. The gist of the method:
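Recombinant human p110γ (13 nM) phosphorylated 20 μM PIP2 with 2 μM ATP plus [γ-33P]ATP in 20 mM MOPS pH 6.7, 10 mM MgCl2, 5 mM DTT, 0.03% CHAPS, 2% DMSO, 120 min at room temperature. Radiolabelled product was captured on WGA SPA beads and counted. IC50 came from curves of percent solvent-control activity.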

Assay [2] relates to Phosphorylated Ribosomal Protein S6 (RPS6) in THP-1 cells. Briefly: THP-1 RPS6 ELISA Assay. It counts as cell-based. The note with it: Homo sapiens; serum starved THP-1 cells, 2 hours with compound, 10 nM MCP-1 for 15 minutes, Phospho-RPS6 ELISA; read-out: PI3Kγ_THP1_RPS6_ELISA IC50. The gist of the method: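 Phospho-RPS6 in lysates measured by ELISA at 450 nm, corrected at 540 nm, after MCP-1 challenge (10 nM, 15 min) of THP-1 cells that were starved overnight and exposed to test compound for 2 h at 37° C, 2×10^5 cells/well. Curve fit of percent inhibition gives IC50.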

The target of assay [3] is PI3Kδ (p110δ/p85α) Recombinant Human Protein (Homo sapiens (Human), UniProt O00329). Description: PI3Kδ Scintillation Proximity Assay. In kind it is biochemical. The note with it: 20 μM PIP2, 2 μM ATP, 3.4 nM PI3Kδ, 120 min, room temperature. In outline: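 Assay conditions: 2 μM ATP (radiolabelled), 20 μM PIP2, 3.4 nM PI3Kδ, 20 mM MOPS pH 6.7 with 10 mM MgCl2, 5 mM DTT, 0.03% CHAPS, 2 h at room temperature. Signal from bead-captured 33P product; IC50 versus solvent control.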
PI3Kδ (p110δ/p85α) Recombinant Human Protein, sequence (O00329 whole entry): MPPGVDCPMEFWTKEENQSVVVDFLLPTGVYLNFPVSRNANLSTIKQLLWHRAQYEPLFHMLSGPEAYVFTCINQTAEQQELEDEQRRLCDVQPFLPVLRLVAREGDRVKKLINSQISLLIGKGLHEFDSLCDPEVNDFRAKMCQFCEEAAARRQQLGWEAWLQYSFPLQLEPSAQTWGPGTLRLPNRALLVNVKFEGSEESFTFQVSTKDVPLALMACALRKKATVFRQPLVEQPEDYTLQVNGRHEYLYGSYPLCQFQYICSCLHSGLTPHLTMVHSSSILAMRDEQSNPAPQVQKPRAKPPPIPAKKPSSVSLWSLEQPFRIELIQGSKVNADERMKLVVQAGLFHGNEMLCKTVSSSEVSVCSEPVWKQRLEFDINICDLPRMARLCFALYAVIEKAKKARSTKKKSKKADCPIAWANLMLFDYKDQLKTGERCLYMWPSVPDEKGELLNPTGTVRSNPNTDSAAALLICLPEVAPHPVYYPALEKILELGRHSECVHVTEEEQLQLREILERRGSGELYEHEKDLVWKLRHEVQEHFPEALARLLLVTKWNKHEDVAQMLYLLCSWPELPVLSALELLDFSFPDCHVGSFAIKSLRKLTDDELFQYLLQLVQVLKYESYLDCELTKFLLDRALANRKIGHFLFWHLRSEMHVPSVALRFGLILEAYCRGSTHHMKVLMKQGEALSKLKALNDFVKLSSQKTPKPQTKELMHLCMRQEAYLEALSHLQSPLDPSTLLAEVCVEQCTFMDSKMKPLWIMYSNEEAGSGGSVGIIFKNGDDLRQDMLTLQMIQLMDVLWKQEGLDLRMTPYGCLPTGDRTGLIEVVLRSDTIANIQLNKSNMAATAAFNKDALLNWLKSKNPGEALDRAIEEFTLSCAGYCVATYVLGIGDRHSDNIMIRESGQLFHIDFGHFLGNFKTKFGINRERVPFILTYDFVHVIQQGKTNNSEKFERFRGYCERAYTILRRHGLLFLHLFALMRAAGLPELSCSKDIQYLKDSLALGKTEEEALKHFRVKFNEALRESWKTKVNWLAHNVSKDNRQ
PI3Kδ (p110δ/p85α) Recombinant Human Protein, sequence (P27986 whole entry partner): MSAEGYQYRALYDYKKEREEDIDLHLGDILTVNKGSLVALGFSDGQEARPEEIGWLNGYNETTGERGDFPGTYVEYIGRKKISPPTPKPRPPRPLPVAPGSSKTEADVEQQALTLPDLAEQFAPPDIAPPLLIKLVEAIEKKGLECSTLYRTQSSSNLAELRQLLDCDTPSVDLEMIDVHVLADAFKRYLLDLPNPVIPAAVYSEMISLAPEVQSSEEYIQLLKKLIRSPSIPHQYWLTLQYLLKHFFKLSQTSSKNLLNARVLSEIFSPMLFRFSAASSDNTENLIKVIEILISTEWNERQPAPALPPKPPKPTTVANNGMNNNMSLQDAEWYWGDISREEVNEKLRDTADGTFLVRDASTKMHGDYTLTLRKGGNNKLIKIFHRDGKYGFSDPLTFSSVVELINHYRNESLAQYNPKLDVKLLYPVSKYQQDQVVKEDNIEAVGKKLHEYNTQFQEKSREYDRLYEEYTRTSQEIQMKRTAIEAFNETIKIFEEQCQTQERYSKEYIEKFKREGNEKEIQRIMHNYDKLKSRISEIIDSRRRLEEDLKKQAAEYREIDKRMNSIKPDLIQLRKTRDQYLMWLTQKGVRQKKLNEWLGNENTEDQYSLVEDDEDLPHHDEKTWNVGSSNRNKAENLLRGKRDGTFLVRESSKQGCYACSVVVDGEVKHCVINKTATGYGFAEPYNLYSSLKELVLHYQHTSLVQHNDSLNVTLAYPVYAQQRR

PI3Kγ (p110γ) Recombinant Human Protein, sequence (P48736 whole entry): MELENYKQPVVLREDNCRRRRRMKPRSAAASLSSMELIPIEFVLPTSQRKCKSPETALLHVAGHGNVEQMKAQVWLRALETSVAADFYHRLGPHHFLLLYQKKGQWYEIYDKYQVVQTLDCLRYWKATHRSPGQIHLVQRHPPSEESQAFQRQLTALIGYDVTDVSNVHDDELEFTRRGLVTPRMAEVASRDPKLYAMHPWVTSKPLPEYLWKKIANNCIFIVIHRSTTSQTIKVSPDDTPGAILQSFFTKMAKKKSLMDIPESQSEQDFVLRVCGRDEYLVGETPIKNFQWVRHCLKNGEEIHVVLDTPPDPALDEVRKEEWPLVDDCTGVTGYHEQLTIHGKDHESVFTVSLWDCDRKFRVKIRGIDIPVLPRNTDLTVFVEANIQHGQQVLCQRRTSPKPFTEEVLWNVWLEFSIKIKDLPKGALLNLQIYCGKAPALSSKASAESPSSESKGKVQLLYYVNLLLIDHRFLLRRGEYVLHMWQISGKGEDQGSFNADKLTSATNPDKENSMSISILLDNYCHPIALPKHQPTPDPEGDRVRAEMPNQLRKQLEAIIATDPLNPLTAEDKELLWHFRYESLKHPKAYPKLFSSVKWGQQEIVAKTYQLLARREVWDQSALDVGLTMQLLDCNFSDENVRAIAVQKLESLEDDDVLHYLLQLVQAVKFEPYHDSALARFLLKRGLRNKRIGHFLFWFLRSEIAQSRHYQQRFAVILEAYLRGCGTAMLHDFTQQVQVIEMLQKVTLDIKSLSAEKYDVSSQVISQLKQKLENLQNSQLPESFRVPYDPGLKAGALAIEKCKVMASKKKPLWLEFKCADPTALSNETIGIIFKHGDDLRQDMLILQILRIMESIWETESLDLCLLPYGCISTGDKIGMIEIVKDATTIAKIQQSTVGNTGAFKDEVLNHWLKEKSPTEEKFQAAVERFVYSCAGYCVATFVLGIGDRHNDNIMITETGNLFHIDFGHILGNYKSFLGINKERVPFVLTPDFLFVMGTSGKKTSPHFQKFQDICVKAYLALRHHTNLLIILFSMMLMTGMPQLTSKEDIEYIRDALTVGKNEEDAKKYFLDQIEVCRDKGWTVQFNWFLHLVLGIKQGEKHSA

`Cc1ccc(S(=O)(=O)NC23CCC(O)(CC2)C3)cc1-c1cnc(N)c(-c2cccnc2)n1` [Example 16, 3-(5-Amino-6-(pyridin-3-yl)pyrazin-2-yl)-N-(4-hydroxybicyclo[2.2.1]heptan-1-yl)-4-methylbenzenesulfonamide Trifluoroacetate Salt]: the results for the negative-log IC50 (pIC50) in assay [1], in assay [2] and in assay [3] were at least 7.00, at least 6.30 and at least 7.00, respectively.
Take `[2H]C([2H])([2H])c1ccc(S(=O)(=O)NC23CCC(C#N)(C2)C3)cc1-c1cnc(N)c(-c2cnc(C)o2)n1` [Example 66, 3-(5-Amino-6-(2-methyloxazol-5-yl)pyrazin-2-yl)-N-(4-cyanobicyclo[2.1.1]hexan-1-yl)-4-(methyl-d3)benzenesulfonamide trifluoroacetate salt]: the negative logarithm of the IC50 (pIC50) in assay [1], in assay [2] and in assay [3] was at least 7.00 throughout.
On to `[2H]C([2H])([2H])c1ccc(S(=O)(=O)NC23CC(CO)(C2)C3)cc1-c1cnc(N)c(-c2cnco2)n1` [Example 75, 3-(5-Amino-6-(oxazol-5-yl)pyrazin-2-yl)-N-(3-(hydroxymethyl)bicyclo[1.1.1]pentan-1-yl)-4-(methyl-d3)benzenesulfonamide trifluoroacetate salt], for which the negative logarithm of the IC50 (pIC50) in assay [1] was at least 7.00; in assay [2], at least 7.00; in assay [3], at least 6.30.
With `[2H]C([2H])([2H])c1ccc(S(=O)(=O)NC23CCC(C#N)(C2)C3)cc1-c1cnc(N)c(-c2ncccn2)n1` [Example 70, 3-(5-Amino-6-(pyrimidin-2-yl)pyrazin-2-yl)-N-(4-cyanobicyclo[2.1.1]hexan-1-yl)-4-(methyl-d3)benzenesulfonamide trifluoroacetate salt], the pIC50 is at least 7.00 in assay [1], at most 6.00 in assay [2] and above 5.70 in assay [3].
For `[2H]C([2H])([2H])c1ccc(S(=O)(=O)NC23CCN(CC2)C3)cc1-c1cnc(N)c(-c2cnc(C)s2)n1` [Example 91, 3-(5-amino-6-(2-methylthiazol-5-yl)pyrazin-2-yl)-N-(1-azabicyclo[2.2.1]heptan-4-yl)-4-(methyl-d3)benzenesulfonamide] the same measures were at least 7.00, at least 7.00 and at least 7.00.
For `Cc1ncc(-c2nc(-c3cc(S(=O)(=O)NC45CCC(CO)(C4)C5)ccc3C)cnc2N)s1` [Example 5, 3-(5-Amino-6-(2-methylthiazol-5-yl)pyrazin-2-yl)-N-(4-(hydroxymethyl)bicyclo[2.1.1]hexan-1-yl)-4-methylbenzenesulfonamide trifluoroacetate salt] the same measures were at least 7.00, at least 7.00 and at least 7.00.
As to `Cc1ccc(S(=O)(=O)NC23CC(CO)(C2)C3)cc1-c1cnc(N)c(-n2cncn2)n1` [Example 24, 3-(5-Amino-6-(1H-1,2,4-triazol-1-yl)pyrazin-2-yl)-N-(3-(hydroxymethyl)bicyclo[1.1.1]pentan-1-yl)-4-methylbenzenesulfonamide trifluoroacetate salt], the pIC50 was at least 7.00 in assay [1], at least 7.00 in assay [2] and at least 6.30 in assay [3].
With `Cc1ccc(S(=O)(=O)NC23CCC(CO)(CC2)OC3)cc1-c1cnc(N)c(-c2ccnc(C#N)c2)n1` [Example 19, 3-(5-Amino-6-(2-cyanopyridin-4-yl)pyrazin-2-yl)-N-(1-(hydroxymethyl)-2-oxabicyclo[2.2.2]octan-4-yl)-4-methylbenzenesulfonamide trifluoroacetate salt], the negative logarithm of the IC50 (pIC50) in assay [1] was at least 7.00; in assay [2], at least 6.00; in assay [3] it was at least 7.00.
In the case of `Cc1ccc(S(=O)(=O)NC23CCC(O)(CC2)C3)cc1-c1cnc(N)c(-n2cncn2)n1` [Example 26, 3-(5-Amino-6-(1H-1,2,4-triazol-1-yl)pyrazin-2-yl)-N-(4-hydroxybicyclo[2.2.1]heptan-1-yl)-4-methylbenzenesulfonamide trifluoroacetate salt], the pIC50 in assay [1], in assay [2] and in assay [3] was at least 7.00 in each case.
`Cc1ccc(S(=O)(=O)NC23CNC(C2)C3)cc1-c1cnc(N)c(-n2ccnn2)n1` [Example 59, 3-(5-amino-6-(1H-1,2,3-triazol-1-yl)pyrazin-2-yl)-N-(2-azabicyclo[2.1.1]hexan-4-yl)-4-methylbenzenesulfonamide trifluoroacetate salt]: the negative-log IC50 (pIC50) is at least 7.00 in assay [1], at least 6.00 in assay [2] and at least 6.30 in assay [3].
The like results for `Cc1ccc(S(=O)(=O)NC23CCC(CO)(C2)C3)cc1-c1cnc(N)c(-n2cncn2)n1` [Example 25, 3-(5-Amino-6-(1H-1,2,4-triazol-1-yl)pyrazin-2-yl)-N-(4-(hydroxymethyl)bicyclo[2.1.1]hexan-1-yl)-4-methylbenzenesulfonamide trifluoroacetate salt] were, in that order, at least 7.00, at least 7.00 and at least 7.00.
The like results for `Cc1ccc(S(=O)(=O)NC23CC(C#N)(C2)C3)cc1-c1cnc(N)c(-c2cn(C)nc2C)n1` [Example 10, 3-(5-Amino-6-(1,3-dimethyl-1H-pyrazol-4-yl)pyrazin-2-yl)-N-(3-cyanobicyclo[1.1.1]pentan-1-yl)-4-methylbenzenesulfonamide Trifluoroacetate Salt] were, in that order, at least 7.00, at least 6.30 and at least 7.00.
Consider `[2H]C([2H])([2H])c1ccc(S(=O)(=O)NC23CC(C#N)(C2)C3)cc1-c1cnc(N)c(-n2nccn2)n1` [Example 50, 3-(5-Amino-6-(2H-1,2,3-triazol-2-yl)pyrazin-2-yl)-N-(3-cyanobicyclo[1.1.1]pentan-1-yl)-4-(methyl-d3)benzenesulfonamide Trifluoroacetate Salt], for which the results for the pIC50 in assay [1], in assay [2] and in assay [3] were at least 7.00, at least 6.30 and at least 7.00, respectively.
On to `Cc1ncc(-c2cc(-c3cc(S(=O)(=O)NC45COC(CO)(C4)C5)ccc3C)cnc2N)s1` [Example 86, 3-(6-amino-5-(2-methylthiazol-5-yl)pyridin-3-yl)-N-(1-(hydroxymethyl)-2-oxabicyclo[2.1.1]hexan-4-yl)-4-methylbenzenesulfonamide], for which the pIC50 in assay [1] is at least 7.00; in assay [2], at least 6.30; in assay [3] it was at least 6.30.
Take `Cc1ccc(S(=O)(=O)NC23CC(C#N)(C2)C3)cc1-c1cnc(N)c(-c2ncn(C)n2)n1` [Example 45, 3-(5-Amino-6-(1-methyl-1H-1,2,4-triazol-3-yl)pyrazin-2-yl)-N-(3-cyanobicyclo[1.1.1]pentan-1-yl)-4-methylbenzenesulfonamide Trifluoroacetate Salt]: the negative-log IC50 (pIC50) in assay [1] was at least 7.00; in assay [2] it was at least 6.30; in assay [3], at least 6.30.
`Cc1ncc(-c2nc(-c3cc(S(=O)(=O)NC45COC(CO)(C4)C5)cc(F)c3C)cnc2N)s1` [Example 9, 3-(5-Amino-6-(2-methylthiazol-5-yl)pyrazin-2-yl)-5-fluoro-N-(1-(hydroxymethyl)-2-oxabicyclo[2.1.1]hexan-4-yl)-4-methylbenzenesulfonamide trifluoroacetate Salt]: the negative logarithm of the IC50 (pIC50) in assay [1], in assay [2] and in assay [3] was at least 7.00 in each case.
